Data from PubChem BioAssay (NCI).
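Compound exposure: 48 hours, 5 concentrations, 96-well plates. Here, GI50 denotes the concentration required for 50% inhibition of growth. TGI denotes the concentration required for complete inhibition of growth.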

Experiments:
Test in all cases: DTP human tumour cell line panel, 48 h
[1] = tested on: LOX IMVI melanoma
[2] = tested on: KM12 colon
[3] = tested on: ACHN renal
[4] = tested on: PC-3 prostate
[5] = tested on: MDA-MB-435
[6] = tested on: SF-539 CNS
[7] = tested on: BT-549 breast
[8] = tested on: NCI-H23 lung
[9] = tested on: A549 NSCLC
[10] = tested on: NCI-H226 lung
[11] = tested on: NCI/ADR-RES ovarian
[12] = tested on: EKVX NSCLC
[13] = tested on: SNB-19 CNS
[14] = tested on: HCC-2998 colon
[15] = tested on: MCF7 breast
[16] = tested on: HL-60(TB) leukemia
[17] = tested on: UACC-62 melanoma
[18] = tested on: OVCAR-5 ovarian
[19] = tested on: CAKI-1 renal
[20] = tested on: SNB-75 CNS
[21] = tested on: MOLT-4 leukemia
[22] = tested on: SF-295 CNS
[23] = tested on: HOP-62 NSCLC
[24] = tested on: HCT-116 colon
[25] = tested on: HS 578T breast
[26] = tested on: SW-620 colon
[27] = tested on: 786-0 renal
[28] = tested on: HCT-15 colon
[29] = tested on: K-562 leukemia
[30] = tested on: M14 melanoma
[31] = tested on: T-47D breast
[32] = tested on: CCRF-CEM leukemia
[33] = tested on: SK-MEL-28 melanoma
[34] = tested on: SF-268 CNS
[35] = tested on: COLO 205 colon
[36] = tested on: U251 CNS
[37] = tested on: NCI-H460 lung
[38] = tested on: SK-MEL-5 melanoma
[39] = tested on: OVCAR-3 ovarian
[40] = tested on: RPMI-8226 leukemia
[41] = tested on: IGROV1 ovarian
[42] = tested on: MDA-MB-231 breast
[43] = tested on: HT29 colon
[44] = tested on: MALME-3M melanoma
[45] = tested on: TK-10 renal
[46] = tested on: OVCAR-4 ovarian
[47] = tested on: SN12C renal
[48] = tested on: DU-145 prostate
[49] = tested on: HOP-92 NSCLC
[50] = tested on: A498 renal
[51] = tested on: SK-OV-3 ovarian

With `Cc1ccc(NCCN2CCCCC2)c2c(=O)c3ccccc3sc12` the GI50 [1] was 1.78 µM, the TGI [1] was 3.68 µM and the GI50 [2] was 3.81 µM. It also gave a TGI [2] of 14.4 µM, a GI50 [3] of 2.68 µM and a TGI [3] of 7.47 µM. For the same compound, the GI50 [4] was 2.14 µM, the TGI [4] was 7.49 µM and the GI50 [5] was 1.78 µM. It also gave a TGI [5] of 3.73 µM, a GI50 [6] of 1.97 µM and a TGI [6] of 5.98 µM. The GI50 [7] was 2.43 µM, the TGI [7] was 9.59 µM and the GI50 [8] was 2.25 µM. For the same compound, the TGI [8] was 5.77 µM, the GI50 [9] was 1.42 µM and the TGI [9] was 2.97 µM. For the same compound, the GI50 [10] was 2.24 µM, the TGI [10] was 4.96 µM and the GI50 [11] was 2.45 µM. It also gave a TGI [11] of 6.78 µM, a GI50 [12] of 2.77 µM and a TGI [12] of 13.1 µM. For the same compound, the GI50 [13] was 2.8 µM, the TGI [13] was 13.1 µM and the GI50 [14] was 2.16 µM. It also gave a TGI [14] of 3.67 µM, a GI50 [15] of 1.56 µM and a TGI [15] of 3.55 µM. For the same compound, the GI50 [16] was 1.66 µM, the TGI [16] was 3.6 µM and the GI50 [17] was 1.92 µM. It also gave a TGI [17] of 3.77 µM, a GI50 [18] of 1.97 µM and a TGI [18] of 3.64 µM. It also gave a GI50 [19] of 0.278 µM, a TGI [19] of 2.43 µM and a GI50 [20] of 2.61 µM. For the same compound, the TGI [20] was 8.09 µM, the GI50 [21] was 1.99 µM and the TGI [21] was 4.91 µM. It also gave a GI50 [22] of 1.63 µM, a TGI [22] of 3.73 µM and a GI50 [23] of 1.55 µM. The TGI [23] was 3.07 µM, the GI50 [24] was 1.68 µM and the TGI [24] was 3.17 µM. It also gave a GI50 [25] of 2.03 µM, a TGI [25] of 5.17 µM and a GI50 [26] of 1.96 µM. The TGI [26] was 4.01 µM, the GI50 [27] was 1.63 µM and the TGI [27] was 3.61 µM. For the same compound, the GI50 [28] was 3.17 µM, the TGI [28] was 10.8 µM and the GI50 [29] was 1.64 µM. The TGI [29] was 3.52 µM, the GI50 [30] was 1.61 µM and the TGI [30] was 2.97 µM. It also gave a GI50 [31] of 2.02 µM, a TGI [31] of 6 µM and a GI50 [32] of 2.38 µM. It also gave a TGI [32] of 6.92 µM, a GI50 [33] of 2.43 µM and a TGI [33] of 4.16 µM. For the same compound, the GI50 [34] was 5.33 µM, the TGI [34] was 18.7 µM and the GI50 [35] was 1.45 µM. The TGI [35] was 2.85 µM, the GI50 [36] was 2.61 µM and the TGI [36] was 7.9 µM. For the same compound, the GI50 [37] was 1.89 µM, the TGI [37] was 3.88 µM and the GI50 [38] was 1.62 µM. The TGI [38] was 3 µM, the GI50 [39] was 4.75 µM and the TGI [39] was 17.6 µM. For the same compound, the GI50 [40] was 1.49 µM, the TGI [40] was 3.42 µM and the GI50 [41] was 1.48 µM. It also gave a TGI [41] of 4.3 µM, a GI50 [42] of 2.12 µM and a TGI [42] of 4.77 µM. The GI50 [43] was 1.97 µM, the TGI [43] was 4.72 µM and the GI50 [44] was 1.19 µM. For the same compound, the TGI [44] was 2.55 µM, the GI50 [45] was 2 µM and the TGI [45] was 5.82 µM. The GI50 [46] was 5.57 µM, the TGI [46] was 18.1 µM and the GI50 [47] was 4.35 µM. It also gave a TGI [47] of 17.6 µM, a GI50 [48] of 3.76 µM and a TGI [48] of 14.4 µM. The GI50 [49] was 1.88 µM, the TGI [49] was 7.56 µM and the GI50 [50] was 1.91 µM. For the same compound, the TGI [50] was 3.64 µM, the GI50 [51] was 2.04 µM and the TGI [51] was 6.03 µM.
